# Laboratory results published in US20220347175A1, “PYRIDAZINONE DERIVATIVE” (Sumitomo Dainippon Pharma Co., Ltd., priority 2018, published 2022).
# Where two headings read alike, the source gives them in different places.
# Assays:
# [1] = target: T1, human Nav1.1 (Homo sapiens, UniProt P35498); test: Amplification of Nav1.1-derived voltage-dependent sodium current (Nav1.1 current), cell line stably expressing human Nav1.1, automated patch clamp; type: cell-based
# T1 construct: host or cells: HEK293
# How it was run: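 Automated whole-cell voltage-clamp recordings used HEK293 cells stably expressing human Nav1.1, keeping only cells with >500 pA current, with currents evoked by ramp voltage. Compounds were applied in extracellular fluid with 1% DMSO, and amplification (%) was computed from peak current or AUC after versus before addition.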
# [2] = target: T2, human Nav1.5 (Homo sapiens, UniProt Q14524); test: Amplification of Nav1.5-derived voltage-dependent sodium current (Nav1.5 current), cell line stably expressing human Nav1.5, automated patch clamp; type: cell-based; settings: for activation at 10 µM / activation at 1 µM: read-out: Nav1.5 current amplification rate (%)
# T2 construct: expressed in transfected cells; host or cells: CHO-K1 (T-REx System, ThermoFisher Scientific)
# T2 sequence (Q14524 1-2015 isoform Q14524-2): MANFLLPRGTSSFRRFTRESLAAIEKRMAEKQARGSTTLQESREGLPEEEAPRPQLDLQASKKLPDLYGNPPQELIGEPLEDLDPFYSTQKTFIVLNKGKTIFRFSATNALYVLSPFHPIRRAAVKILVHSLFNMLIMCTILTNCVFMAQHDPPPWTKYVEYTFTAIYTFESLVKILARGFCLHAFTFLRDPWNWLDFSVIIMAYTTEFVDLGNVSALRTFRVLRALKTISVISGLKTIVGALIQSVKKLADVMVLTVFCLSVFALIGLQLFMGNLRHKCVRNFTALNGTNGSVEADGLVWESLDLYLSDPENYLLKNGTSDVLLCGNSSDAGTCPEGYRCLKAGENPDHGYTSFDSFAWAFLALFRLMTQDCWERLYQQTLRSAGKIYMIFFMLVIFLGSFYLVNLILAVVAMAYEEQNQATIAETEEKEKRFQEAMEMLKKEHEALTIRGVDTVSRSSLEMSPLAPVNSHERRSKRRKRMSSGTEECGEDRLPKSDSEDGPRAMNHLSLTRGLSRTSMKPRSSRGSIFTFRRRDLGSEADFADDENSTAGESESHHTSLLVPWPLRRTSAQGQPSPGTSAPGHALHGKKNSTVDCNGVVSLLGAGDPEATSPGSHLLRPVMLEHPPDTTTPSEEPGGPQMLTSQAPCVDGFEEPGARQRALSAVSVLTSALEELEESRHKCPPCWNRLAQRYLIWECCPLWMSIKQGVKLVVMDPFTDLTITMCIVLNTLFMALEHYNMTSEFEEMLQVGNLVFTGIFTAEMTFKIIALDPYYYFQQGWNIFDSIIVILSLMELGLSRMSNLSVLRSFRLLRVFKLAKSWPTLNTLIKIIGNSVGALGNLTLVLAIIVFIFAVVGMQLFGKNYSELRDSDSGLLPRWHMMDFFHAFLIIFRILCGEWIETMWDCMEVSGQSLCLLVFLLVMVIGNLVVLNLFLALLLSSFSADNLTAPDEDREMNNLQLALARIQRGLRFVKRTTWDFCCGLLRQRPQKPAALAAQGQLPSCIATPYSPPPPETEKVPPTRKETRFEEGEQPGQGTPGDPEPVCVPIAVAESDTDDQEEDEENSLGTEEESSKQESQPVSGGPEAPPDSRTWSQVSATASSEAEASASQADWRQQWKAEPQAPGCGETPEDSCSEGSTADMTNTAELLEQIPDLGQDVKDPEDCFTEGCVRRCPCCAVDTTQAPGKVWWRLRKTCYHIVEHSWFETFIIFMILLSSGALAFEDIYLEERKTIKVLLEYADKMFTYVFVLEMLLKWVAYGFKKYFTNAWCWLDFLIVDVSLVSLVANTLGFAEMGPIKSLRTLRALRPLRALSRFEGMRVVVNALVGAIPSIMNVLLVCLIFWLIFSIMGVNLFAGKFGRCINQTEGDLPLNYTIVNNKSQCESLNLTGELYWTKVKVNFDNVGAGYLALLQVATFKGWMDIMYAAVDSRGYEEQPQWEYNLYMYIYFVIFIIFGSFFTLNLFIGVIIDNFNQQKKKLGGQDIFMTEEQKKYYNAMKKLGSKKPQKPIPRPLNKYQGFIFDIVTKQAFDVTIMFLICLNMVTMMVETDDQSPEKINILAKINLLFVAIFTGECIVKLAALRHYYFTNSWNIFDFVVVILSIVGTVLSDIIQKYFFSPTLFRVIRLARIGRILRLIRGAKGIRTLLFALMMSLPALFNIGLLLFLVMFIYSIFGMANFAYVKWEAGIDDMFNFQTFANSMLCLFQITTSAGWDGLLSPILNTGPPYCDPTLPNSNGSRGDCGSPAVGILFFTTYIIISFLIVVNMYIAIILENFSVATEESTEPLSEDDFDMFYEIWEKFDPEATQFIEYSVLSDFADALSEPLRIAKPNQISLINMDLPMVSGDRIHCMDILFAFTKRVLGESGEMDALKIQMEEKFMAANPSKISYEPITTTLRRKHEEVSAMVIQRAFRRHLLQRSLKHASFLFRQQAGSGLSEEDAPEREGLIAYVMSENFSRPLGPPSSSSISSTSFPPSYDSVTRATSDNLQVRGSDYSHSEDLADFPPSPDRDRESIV
# Procedure: Test 2: Evaluation of the Amplification in Nav1.5-Derived Voltage-Dependent Sodium Current (Nav1.5 Current) by Using a Cell Line Stably Expressing Human Nav1.5
# A CHO-K1 cell line (Chinese hamster ovary) stably expressing human Nav1.5 (Gene Bank Accession No: P000326.2) was obtained by using purchased T-Rex System (ThermoFisher Scientific, USA), and used for the present test. The effect of test compounds on the amplification of Nav1.5 current was evaluated by using a cell line stably expressing human Nav1.5 and HTS automated patch clamp system, similarly in the method using Nav1.1. In other words, test compounds were added in an extracellular fluid which contained 1% DMSO and 500 nmol/L Tetrodotoxin (TTX), and evaluated as a change of the peak value of Nav1.5 current and the area under the curve (AUC). The induction and the measurement of Nav1.5 current, the pharmacologic effect on Nav1.5 current, and a method for pharmacological evaluation were carried out by the same method as in Nav1.1.
# [3] = compound 1 μmol/L, HEK293 stably expressing human Nav1.1
# [4] = compound 1 μmol/L, CHO-K1 stably expressing human Nav1.5
# [5] = 10 μmol/L compound, change of the area under the curve of Nav1.1 current (Test Result 1), read-out: Nav1.1 current amplification rate (%)
# [6] = 10 μmol/L compound, change of the area under the curve of Nav1.5 current (Test Result 1)
# [7] = 10 μmol/L compound, change of the area under the curve of Nav1.1 current (Test Result 1)
# [8] = compound 3 μmol/L, HEK293 stably expressing human Nav1.1
# [9] = compound 3 μmol/L, CHO-K1 stably expressing human Nav1.5
# [10] = compound 1 μmol/L, HEK293 stably expressing human Nav1.1, read-out: Nav1.1 current amplification rate (%)
# [11] = concentration of each compound 1 μmol/L (Test Result 6)
# [12] = Concentration 1 μM (Test Result 7), read-out: Nav1.1 current amplification rate (%)
# [13] = 10 μmol/L compound (Test Result 5)
# [14] = 10 μmol/L compound (Test Result 5), read-out: Nav1.1 current amplification rate (%)
compound,measurement,setting,value
CC1CC=C(c2ccc(=O)n(CC(=O)N3CCc4c(CN(C)C5COC5)cccc43)n2)CC1 (racemic) [Example 276],Nav1.1 current amplification rate (%),[1]; [3],207%
same,Nav1.5 current amplification rate (%),[2]; [4],47%
Cc1cc(N2CCC3(CCC3)C2)nn(CC(=O)Nc2ccc3ocnc3c2)c1=O [Example 204],activation at 10 µM,[1]; [5],189%
same,activation at 10 µM,[2]; [6],8%
CC1CC=C(c2ccc(=O)n(CC(=O)Nc3ccc4oc(C(F)F)nc4c3)n2)CC1 (racemic) [Example 243],Nav1.1 current amplification rate (%),[1]; [7],276%
same,Nav1.5 current amplification rate (%),[2]; [6],19%
N#Cc1ccc(NC(=O)Cn2nc(N3CCC4(CCC4)CC3)ccc2=O)cn1 [Example 124],activation at 10 µM,[1]; [5],205%
same,activation at 10 µM,[2]; [6],70%
CC1CC=C(c2ccc(=O)n(CC(=O)N3CCc4c(N5CCOCC5)cccc43)n2)CC1 (racemic) [Example 245],Nav1.1 current amplification rate (%),[1]; [3],393%
same,Nav1.5 current amplification rate (%),[2]; [4],32%
Cc1cc(NC(=O)Cn2nc(C3=CCC(C)CC3)ccc2=O)cc2ncnn12 (racemic) [Example 352],Nav1.1 current amplification rate (%),[1]; [3],155%
same,Nav1.5 current amplification rate (%),[2]; [4],34%
CC1CCN(c2ccc(=O)n(CC(=O)Nc3cncc(C(F)(F)F)c3)n2)CC1 [Example 61],Nav1.1 current amplification rate (%),[1]; [7],77%
same,Nav1.5 current amplification rate (%),[2]; [6],8%
CN(C)c1cc(N2CCC(C)(C)CC2)nn(CC(=O)Nc2ccn3ccnc3c2)c1=O [Example 211],activation at 10 µM,[1]; [5],212%
same,activation at 10 µM,[2]; [6],8%
COc1nc2cc(NC(=O)Cn3nc(C4=CCC(C)CC4)ccc3=O)ccc2o1 (racemic) [Example 239],Nav1.1 current amplification rate (%),[1]; [7],310%
same,Nav1.5 current amplification rate (%),[2]; [6],31%
COc1ccc2c(c1)CCN2C(=O)Cn1nc(N2CCC3(CCC3)C2)ccc1=O [Example 187],activation at 10 µM,[1]; [5],37%
same,activation at 10 µM,[2]; [6],17%
COc1cc(-c2cc(Cl)cs2)nn(CC(=O)N2CCc3c(N4CCOCC4)cccc32)c1=O [Example 479],Nav1.1 current amplification rate (%),[1]; [7],420%
same,Nav1.5 current amplification rate (%),[2]; [6],135%
Cc1cc(NC(=O)Cn2nc(N3CCC(C)CC3)ccc2=O)cc2ncoc12 [Example 96],Nav1.1 current amplification rate (%),[1]; [7],105%
same,Nav1.5 current amplification rate (%),[2]; [6],7%
O=C(Cn1nc(C2=CCC(F)(F)CC2)ccc1=O)Nc1ccnc(C(F)(F)F)c1 [Example 114],activation at 10 µM,[1]; [5],83%
same,activation at 10 µM,[2]; [6],12%
CC1CC=C(c2ccc(=O)n(CC(=O)Nc3ccnc(N4CCOCC4)c3F)n2)CC1 (racemic) [Example 383],Nav1.1 current amplification rate (%),[1]; [3],84%
same,Nav1.5 current amplification rate (%),[2]; [4],51%
CC1CC=C(c2ccc(=O)n(CC(=O)Nc3ccc4cncnc4c3)n2)CC1 (racemic) [Example 356],Nav1.1 current amplification rate (%),[1]; [3],378%
same,Nav1.5 current amplification rate (%),[2]; [4],34%
COc1cnc(C)c(N2CCN(C(=O)Cn3nc(C4=CCC(C)CC4)ccc3=O)CC2)c1 (stereo not shown) [Example 418],Nav1.1 current amplification rate (%),[1]; [8],105%
same,Nav1.5 current amplification rate (%),[2]; [9],7%
CC1CC=C(c2ccc(=O)n(CC(=O)N3CCN(c4cnn(C)c4)CC3)n2)CC1 (stereo not shown) [Example 415],Nav1.1 current amplification rate (%),[1]; [7],93%
same,Nav1.5 current amplification rate (%),[2]; [6],2%
CC1CC=C(c2ccc(=O)n(CC(=O)N3CCc4c(C5=CCNC5)cccc43)n2)CC1 (racemic) [Example 265],Nav1.1 current amplification rate (%),[1]; [8],110%
same,Nav1.5 current amplification rate (%),[2]; [9],19%
O=C(Cn1nc(N2CCC3(CCC3)C2)cc(N2CCCC2)c1=O)Nc1ccc2ocnc2c1 [Example 207],activation at 10 µM,[1]; [5],89%
same,activation at 10 µM,[2]; [6],7%
CC1CCN(c2ccc(=O)n(CC(=O)Nc3ccn4c(Br)cnc4c3)n2)CC1 [Example 173],activation at 10 µM,[1]; [5],112%
same,activation at 10 µM,[2]; [6],47%
O=C(Cn1nc(C2=CCCCC2)ccc1=O)N1CCc2c(-c3ccnnc3)cccc21 [Example 517],activation at 1 µM,[1]; [10],359%
same,activation at 1 µM,[2]; [4],16%
COc1cc(=O)n(CC(=O)Nc2ccn3ccnc3c2)nc1C1=CCC(C)(C)CC1 [Example 459],Nav1.1 current amplification rate (%),[1]; [7],118%
same,Nav1.5 current amplification rate (%),[2]; [6],21%
O=C(Cn1nc(N2CC3C(C2)C3(F)F)ccc1=O)Nc1ccc2ocnc2c1 (stereo not shown) [Example 162],activation at 10 µM,[1]; [5],6%
same,activation at 10 µM,[2]; [6],0%
O=C(Cn1nc(N2CC3(CCCCC3)C2)ccc1=O)Nc1ccn2ccnc2c1 [Example 179],activation at 10 µM,[1]; [5],27%
same,activation at 10 µM,[2]; [6],-1%
COc1cc(C2=CCC(C)C2)nn(CC(=O)N2CCN(c3cncc(F)c3)CC2)c1=O (stereo not shown) [Example 485],Nav1.1 current amplification rate (%),[1]; [7],264%
same,Nav1.5 current amplification rate (%),[2]; [6],3%
O=C(Cn1nc(N2CCC3(CCC3)CC2)ccc1=O)Nc1ccc2c(c1)COC2 [Example 190],activation at 10 µM,[1]; [5],100%
same,activation at 10 µM,[2]; [6],12%
CC1(C)CC=C(c2ccc(=O)n(CC(=O)N3CCc4c(C5CN(C6COC6)C5)cccc43)n2)CC1 [Example 438],Nav1.1 current amplification rate (%),[1]; [8],404%
same,Nav1.5 current amplification rate (%),[2]; [9],25%
O=C(Cn1nc(C2=CCCC2)ccc1=O)N1CCc2c(-c3cccnc3)cccc21 [Example 524],activation at 1 µM,[1]; [10],143%
same,activation at 1 µM,[2]; [4],5%
O=C(Cn1nc(C2=CCCCC2)ccc1=O)N1CCc2c(CN3CCOCC3)cccc21 [Example 519],activation at 1 µM,"[1]; concentration of each compound 1 μmol/L (Test Result 6), read-out: Nav1.1 current amplification rate (%)",135%
CN(c1ccc(=O)n(CC(=O)Nc2ccc3cnccc3c2)n1)C1CC2(CC2)C1 [Example 569],activation at 50 µM,"[1]; Concentration 50 μM (Test Result 7), read-out: Nav1.1 current amplification rate (%)",393%
CC1CC=C(c2ccc(=O)n(CC(=O)N3CCc4c(CNC5CCOCC5)cccc43)n2)CC1 (racemic) [Example 317],Nav1.1 current amplification rate (%),[1]; [11],41%
O=C(Cn1nc(N2CCC3(CCC3)CC2)ccc1=O)Nc1ccc2cncnc2c1 [Example 553],activation at 1 µM,[1]; [12],155%
Cc1cc2ccc(NC(=O)Cn3nc(C4=CCC(C)CC4)ccc3=O)cn2n1 (racemic) [Example 347],Nav1.1 current amplification rate (%),[1]; [11],37%
N#Cc1ccc(NC(=O)Cn2nc(N3CCC4(CC4)C(F)(F)C3)ccc2=O)cn1 [Example 560],activation at 1 µM,[1]; [12],12%
CC1CC=C(c2ccc(=O)n(CC(=O)Nc3cncc(CN(C)C)c3)n2)CC1 (racemic) [Example 365],Nav1.1 current amplification rate (%),"[1]; compound 50 μmol/L, HEK293 stably expressing human Nav1.1",32%
N#Cc1ccc(NC(=O)Cn2nc(C3=CCCCC3)ccc2=O)cc1 [Example 39],Nav1.1 current amplification rate (%),[1]; [13],125%
O=C(Cn1nc(N2CCC3(CC3)C(F)(F)C2)ccc1=O)Nc1ccn2ncnc2c1 [Example 557],activation at 1 µM,[1]; [12],17%
CC1CC=C(c2ccc(=O)n(CC(=O)NC3CCn4ccnc4C3)n2)CC1 (stereo not shown) [Example 533],activation at 10 µM,[1]; [14],22%
CC1CC=C(c2ccc(=O)n(CC(=O)Nc3ccc(CO)nc3)n2)CC1 (racemic) [Example 376],Nav1.1 current amplification rate (%),[1]; [13],44%
CC1CC=C(c2ccc(=O)n(CC(=O)N3CCc4c3ccc(F)c4-c3ccnnc3)n2)CC1 (racemic) [Example 295],Nav1.1 current amplification rate (%),[1]; [11],95%
N#Cc1ccc(NC(=O)Cn2nc(N3CC4CC4C3)ccc2=O)cc1 (stereo not shown) [Example 18],Nav1.1 current amplification rate (%),[1]; [13],11%
CC1CC=C(c2ccc(=O)n(CC(=O)Nc3ccc(-c4cnn(C)c4)nc3)n2)CC1 (racemic) [Example 375],Nav1.1 current amplification rate (%),[1]; [13],173%
CC1(C)CC=C(c2ccc(=O)n(CC(=O)NC3CCn4ccnc4C3)n2)CC1 (stereo not shown) [Example 534],activation at 10 µM,[1]; [14],7%
CC1CC=C(c2ccc(=O)n(CC(=O)N3CCC(c4cccnc4)CC3)n2)CC1 (racemic) [Example 262],Nav1.1 current amplification rate (%),[1]; [13],124%
COC1CCN(c2ccc(=O)n(CC(=O)Nc3ccc(C#N)cc3)n2)CC1 [Example 9],Nav1.1 current amplification rate (%),[1]; [13],11%
